Reference: PMC12071365, “Discovery of Boronic Acids-Based β-Lactamase Inhibitors Through In Situ Click Chemistry” (International Journal of Molecular Sciences, 2025)
Like-named read-outs stand apart in the source and are kept apart here.

How the values were obtained:
KPC-2 [1] = biological target: T1, KPC-2 (Klebsiella pneumoniae, UniProt Q9F663); assay: Competitive inhibition assay with nitrocefin, Ki; type: biochemical
T1 construct: made in house
Method: (§1) The β-lactamases used in the present study were from a Clinical Biochemistry Laboratory collection (Department of Biotechnological and Applied Clinical Sciences, University of L’Aquila, L’Aquila, Italy). […] The concentration of each enzyme was determined by a Bradford assay.
(§2) The plot v0/vi versus [I] yielded a straight line of slope KM/(KM + S) × Ki.
AC = Amplification coefficient. In the AC column, between brackets reports the regioisomeric ratio observed (1,4- vs. 1,5-) and bold reports the synthesised regioisomer. Light blue indicates the compounds obtained from the KPC-2 screening.

KPC-2 [2] = biological target: T1, KPC-2; details: KPC-2 20 mol%; warhead 3 + alkyne cluster; 37 °C, 24 h
Method: Starting from the azido-functionalised boronic acid 3, optimised conditions (see SI Table S2) were applied in combination with the 90-component alkyne library. The reactions were conducted in 0.2 mL microtubes in a 95:5 sodium phosphate 50 mM pH 7.0:DMSO mixture (final volume 100 µL), stirring at 300 rpm at 37 °C for 24 h (Scheme 1).
The experiments were conducted in triplicate, using a reaction mixture containing one equivalent of warhead 3, five equivalents of each alkyne cluster (9 alkynes), and 20 mol% KPC-2 as the catalyst. Product formation was monitored directly from the crude mixture using a hybrid quadrupole orbitrap LC–MS system in the ESI+ or ESI- mode after 24 h. Peak areas of the desired products were compared across three conditions: with KPC-2, without any enzyme, and with bovine serum albumin (BSA). […] The resulting ratio, named as the amplification coefficient (AC), was calculated from the peak area of the product obtained in the presence of KPC-2 vs. the one acquired with the controls.
(§3) Binary and multicomponent KTGS. […] The microtube was shaken at 300 rpm at 37 °C for 24 h. Reactions were transferred into a LC–MS vial and directly injected (10 µL) for liquid chromatography–mass spectrometry (LC–MS). Reactions were analysed with an Ultimate 3000 UHPLC coupled to a Q-exactive hybrid quadrupole-orbitrap mass spectrometer via an HESI-II heated electrospray ionisation source. The chromatographic separation was performed injecting a 10 µL sample volume on a Hypersil Gold C18 100 × 2.1 mm, 1.9 µm column (Thermo Fisher Scientific), kept at 30 °C eluting with 0.3 mL/min flow of ultrapure water (A) and methanol (B), both with 0.1% formic acid as mobile phase. […] A data-dependent mass spectrometric data acquisition strategy was used for full MS/DD-MS2. […] An inclusion list was eventually used to target the MS2 spectra acquisition of preferred ion species. Detection was based on calculated [M+H]^+ and [M−H]^− molecular ions with a 5 ppm accuracy tolerance for their respective ion chromatogram extraction. Peak retention time and area of detected target compounds was used for their detection and semi-quantitative evaluation in between reaction batches.
(§4) For controls (buffer and BSA), AmpC/KPC-2 is replaced with no enzyme (buffer volume 95 µL) and BSA (stock 100 µM, final concentration 5 µM, buffer volume 90 µL). Hits were identified in each cluster by mass and retention time and compared with both controls (buffer and BSA) and synthetically prepared triazoles obtained in mixtures.

AmpC [3] = biological target: T2, AmpC (Escherichia coli, UniProt P00811); assay: Competitive inhibition assay with nitrocefin, Ki; type: biochemical; parameters: made in house
Method: as §1, §2
Figure 9 Compounds synthesised and their biological evaluation. AC = Amplification coefficient. […] Light blue indicates the compounds from the AmpC screening.

AmpC [4] = biological target: T2, AmpC; parameters: made in house; details: AmpC 20 mol%; warhead 3 + alkyne cluster; 37 °C, 24 h
Method: Following the same conditions used for the multicomponent screening with KPC-2, the in situ click chemistry experiment was performed using AmpC as template.
as §3, §4

[5] = tested on: O=C(Cc1cccs1)N[C@@H]1C(=O)N2C(C(=O)O)=C(/C=C/c3ccc([N+](=O)[O-])cc3[N+](=O)[O-])CS[C@H]12; assay: KM of reporter substrate (Hanes-Woolf); type: biochemical; details: pH 7.0
Method: The β-lactamases used in the present study were from a Clinical Biochemistry Laboratory collection (Department of Biotechnological and Applied Clinical Sciences, University of L’Aquila, L’Aquila, Italy). All enzymes show a purity degree of higher than 95%. The concentration of each enzyme was determined by a Bradford assay.

[6] = tested on: O=C(Cc1cccs1)N[C@@H]1C(=O)N2C(C(=O)O)=C(/C=C/c3ccc([N+](=O)[O-])cc3[N+](=O)[O-])CS[C@H]12; assay: purified protein, by the assay type
[7] = tested on: C[C@@H](O)[C@H]1C(=O)N2C(C(=O)O)=C(S[C@@H]3CN[C@H](C(=O)N(C)C)C3)[C@H](C)[C@H]12; assay: purified protein, by the assay type

T1 sequence (Q9F663 25-293, looked up, species assumed): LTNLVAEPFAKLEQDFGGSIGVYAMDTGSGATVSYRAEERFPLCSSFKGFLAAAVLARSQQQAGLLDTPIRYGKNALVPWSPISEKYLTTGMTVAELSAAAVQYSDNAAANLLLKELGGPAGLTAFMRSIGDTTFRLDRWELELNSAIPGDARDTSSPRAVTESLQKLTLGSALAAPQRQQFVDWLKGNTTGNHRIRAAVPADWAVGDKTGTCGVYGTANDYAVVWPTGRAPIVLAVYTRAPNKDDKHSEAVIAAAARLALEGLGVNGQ
T2 sequence (P00811 20-377): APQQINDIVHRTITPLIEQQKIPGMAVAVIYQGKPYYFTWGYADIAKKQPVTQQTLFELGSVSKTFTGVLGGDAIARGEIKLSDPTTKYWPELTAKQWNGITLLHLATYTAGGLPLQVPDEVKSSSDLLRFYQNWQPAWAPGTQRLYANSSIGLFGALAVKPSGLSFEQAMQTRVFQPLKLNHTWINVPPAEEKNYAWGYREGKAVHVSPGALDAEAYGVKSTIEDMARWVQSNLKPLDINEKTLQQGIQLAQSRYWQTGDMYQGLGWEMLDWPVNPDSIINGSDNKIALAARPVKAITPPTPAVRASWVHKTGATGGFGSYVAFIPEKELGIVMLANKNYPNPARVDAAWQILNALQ

With COC(=O)c1cccc(CS(=O)(=O)NCc2cn(Cc3cccc(B(O)O)c3)nn2)c1 [compound 7] the Ki (KPC-2 [1]) was 1700 nM, the “AC (amplification coefficient)” value (KPC-2 [2]) was 5-6 and the Ki (AmpC [3]; AmpC, values in nM) was 300 nM. For the same compound, the “AC (amplification coefficient)” value (AmpC [4]) was 4-5.

CCCCC(=O)NCc1cn(Cc2cccc(B(O)O)c2)nn1 [compound 8] gave a Ki (KPC-2 [1]) of 7600 ± 400 nM and a Ki (AmpC [3]) of 1500 nM.

In the case of CC(C)CC(O)c1cn(Cc2cccc(B(O)O)c2)nn1 (stereo not drawn) [compound 9], the Ki (KPC-2 [1]) is reported as 5600 ± 300 nM and the Ki (AmpC [3]) is reported as 11000 nM.

Compound O=S(=O)(NCc1cn(Cc2cccc(B(O)O)c2)nn1)C1CCCCC1 [compound 10] has a Ki (KPC-2 [1]) of 670 ± 100 nM and a Ki (AmpC [3]; AmpC, values in nM) of 600 nM.

CN(C)c1ccc(-c2cn(Cc3cccc(B(O)O)c3)nn2)cc1 [compound 11] gave a Ki (KPC-2 [1]) of 460 nM and a Ki (AmpC [3]; AmpC, values in nM) of 280 nM.

In the case of COC(=O)c1ccc(C(=O)NCc2cn(Cc3cccc(B(O)O)c3)nn2)cc1 [compound 12], the Ki (AmpC [3]; AmpC, values in nM) is reported as 400 nM and the “AC (amplification coefficient)” value (AmpC [4]) is reported as 3-4.

In the case of O=C(CCC1CCCCC1)NCc1cn(Cc2cccc(B(O)O)c2)nn1 [compound 13], the Ki (AmpC [3]; AmpC, values in nM) is reported as 800 nM.

In the case of ADC-25 (Acinetobacter baumannii), the Km [5] is reported as 120 ± 3 µM µM.

Work on CMY-2 (Klebsiella pneumoniae) yielded a Km ([6]; other: CMY-2, NaPi 50 mM pH 7.0) of 8 ± 1 µM µM.

CTX-M-15 (Escherichia coli) gave a Km ([6]; other: CTX-M-15, NaPi 50 mM pH 7.0) of 35 ± 1 µM µM.

Compound IMP-1 (Serratia marcescens) has a Km ([7]; other: IMP-1, HEPES 20 mM pH 7.0 + 20 µM Zn) of 30 ± 1 µM µM.

For OXA-24 (Acinetobacter baumannii), the Km ([6]; other: OXA-24, NaPi 50 mM pH 7.0) was 29 ± 1 µM µM.

With VIM-1 (Pseudomonas aeruginosa PAO1) the Km ([7]; other: VIM-1, HEPES 20 mM pH 7.0 + 20 µM Zn) was 130 ± 4 µM µM.
